In patent publication US9624217B2, “Dihydropyrrolopyridine inhibitors of ROR-gamma” (Vitae Pharmaceuticals, Inc., priority 2014, dated 2017) one finds Ki data, which are given here for 58 compounds.

Molecules are shown by their SMILES.

Chain of recombinant RORγ Ligand Binding Domain (LBD) (P51449 269-508): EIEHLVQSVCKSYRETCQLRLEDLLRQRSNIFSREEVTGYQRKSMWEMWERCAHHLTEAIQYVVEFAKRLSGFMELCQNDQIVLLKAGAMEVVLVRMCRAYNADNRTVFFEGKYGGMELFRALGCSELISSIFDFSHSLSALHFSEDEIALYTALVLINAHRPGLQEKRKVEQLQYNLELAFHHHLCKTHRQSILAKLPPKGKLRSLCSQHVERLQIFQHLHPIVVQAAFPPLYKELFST

This test concerns the target recombinant RORγ Ligand Binding Domain (LBD) (Homo sapiens (Human), UniProt P51449). Briefly: Radio-Ligand RORγ Binding Assay (Assay 1). To be noted: SPA competition with 25-hydroxy [26,27-3H]-cholesterol, cell-free; read-out: RORγ Binding Ki Range. How it is done:
Radio-Ligand RORγ Binding Assay (Assay 1)
Compounds of the present invention were tested for ability to bind to RORγ in a cell-free competition assay with commercially available radio-ligand (RL), 25-hydroxy [26,27-^3H]-cholesterol (PerkinElmer, Cat. #NET674250UC), for a ligand binding site on a recombinant RORγ Ligand Binding Domain (LBD) protein expressed as a 6×His-Glutathione-S-Transferase (GST) fusion. […] The plate was shaken at 700 rpm for 20 min and incubated for 10 min at rt, after which 40 μL of poly-Lys YSi SPA beads (PerkinElmer, Cat. #RPNQ0010) were added to achieve 50 μg of the beads per well. The plate was incubated on an orbital shaker for 20 min and then for 10 min without agitation at rt. SPA signal for tritium beta radiation was registered on PerkinElmer Microbeta plate reader. […] The percent inhibition vs. concentration data were fit into a four-parameter model, and IC50 values were calculated from the fit as the concentrations corresponding to the inflection points on the dose-response curves.
The Ki is a measure of affinity in units of concentration, obtained from inhibition or displacement. Consider `CC(C)[C@@H]1c2ncc(C(=O)NCc3ccc(S(C)(=O)=O)cc3)cc2CN1Cc1ccc(Cl)cc1` [Compound 18], for which the Ki is more than 1000 nM. `CC(C)[C@@H]1c2ncc(C(=O)NCc3ccc(S(C)(=O)=O)cc3)cc2CN1Cc1ccc(C#N)cc1` [Compound 19]: the inhibitory constant (Ki) was more than 1000 nM. As for `CC(C)[C@H]1c2ncc(C(=O)NCc3ccc(S(C)(=O)=O)cc3)cc2CN1Cc1ccc(Cl)cn1` [Compound 23], the figure is 100 to 1000 nM; as for `CC(C)[C@H]1c2ncc(C(=O)NCc3ccc(S(C)(=O)=O)cc3)cc2CN1Cc1ccc(C(F)(F)F)cn1` [Compound 36], 100 to 1000 nM; as for `CC(C)[C@@H]1c2ncc(C(=O)NCc3ccc(S(C)(=O)=O)cc3)cc2CN1Cc1ccc(C(F)(F)F)cn1` [Compound 37], more than 1000 nM. Take `CCS(=O)(=O)c1ccc(CNC(=O)c2cnc3c(c2)CN(C[C@H]2CC[C@H](C(=O)OC)CC2)[C@H]3C(C)C)cc1` [Compound 44]: the inhibitory constant (Ki) is less than 100 nM.

Consider `CCS(=O)(=O)c1ccc(CNC(=O)c2cnc3c(c2)C(=O)N(C[C@H]2CC[C@H](C(F)(F)F)CC2)[C@H]3C(C)C)nc1` [Compound 47], for which the inhibition constant (Ki) was less than 100 nM.

Regarding `CC(C)[C@H]1c2ncc(C(=O)NCC3CCS(=O)(=O)CC3)cc2CN1Cc1ccc(C(F)(F)F)cc1` [Compound 61], the Ki was more than 1000 nM. For `CC(C)[C@H]1c2ncc(C(=O)NCCC3CCS(=O)(=O)CC3)cc2CN1Cc1ccc(C(F)(F)F)cc1` [Compound 62], the Ki was more than 1000 nM.

Regarding `COC(=O)c1ccc(CNC(=O)c2cnc3c(c2)CN(Cc2ccc(C(F)(F)F)cc2)[C@H]3C(C)C)cc1` [Compound 65, Methyl (S)-4-((7-isopropyl-6-(4-(trifluoromethyl)benzyl)-6,7-dihydro-5H-pyrrolo[3,4-b]pyridine-3-carboxamido)methyl)benzoate], the Ki is 100 to 1000 nM. For `CC(C)[C@H]1c2ncc(C(=O)NCCC3CN(C(=O)OC(C)(C)C)C3)cc2CN1Cc1ccc(C(F)(F)F)cc1` [Compound 66], the inhibitory constant (Ki) is more than 1000 nM. The result for `CC(C)[C@H]1c2ncc(C(=O)NCC3CN(C(=O)OC(C)(C)C)C3)cc2CN1Cc1ccc(C(F)(F)F)cc1` [Compound 68] reads more than 1000 nM; that for `CC(C)[C@H]1c2ncc(C(=O)NCc3cn4cccnc4n3)cc2CN1Cc1ccc(C(F)(F)F)cc1` [Compound 69], more than 1000 nM; that for `CC(C)[C@H]1c2ncc(C(=O)NCC(O)c3ccc(C(F)(F)F)cc3)cc2CN1Cc1ccc(C(F)(F)F)cc1` (stereo partly shown) [Compound 70], more than 1000 nM. The result for `CC(C)[C@H]1c2ncc(C(=O)N[C@@H](CCO)c3ccc(Cl)cc3)cc2CN1Cc1ccc(C(F)(F)F)cc1` [Compound 71] reads 100 to 1000 nM; that for `CC(C)[C@H]1c2ncc(C(=O)NCC3CCN(C(=O)OC(C)(C)C)C3)cc2CN1Cc1ccc(C(F)(F)F)cc1` (stereo partly shown) [Compound 74], more than 1000 nM. As for `COC(=O)[C@H]1CC[C@H](CNC(=O)c2cnc3c(c2)CN(Cc2ccc(C(F)(F)F)cc2)[C@H]3C(C)C)CC1` [Compound 75], the figure is more than 1000 nM. With `CC(C)[C@H]1c2ncc(C(=O)NCCN3CCOCC3)cc2CN1Cc1ccc(C(F)(F)F)cc1` [Compound 77], the inhibition constant Ki is more than 1000 nM. As for `CC(C)[C@H]1c2ncc(C(=O)NCc3ccccn3)cc2CN1Cc1ccc(C(F)(F)F)cc1` [Compound 78], the figure is 100 to 1000 nM; as for `CC(C)[C@H]1c2ncc(C(=O)NCCCN3CCCC3=O)cc2CN1Cc1ccc(C(F)(F)F)cc1` [Compound 79], more than 1000 nM.

With `CC(C)[C@H]1c2ncc(C(=O)NCC3(c4ccc(Cl)cc4)CC3)cc2CN1Cc1ccc(C(F)(F)F)cc1` [Compound 80], the Ki was more than 1000 nM.

With `CC(C)[C@H]1c2ncc(C(=O)NCc3ccccc3CN3CCN(C)CC3)cc2CN1Cc1ccc(C(F)(F)F)cc1` [Compound 81], the inhibition constant Ki is more than 1000 nM. Consider `CC(C)[C@H]1c2ncc(C(=O)NCc3ccn(C)n3)cc2CN1Cc1ccc(C(F)(F)F)cc1` [Compound 82], for which the inhibition constant (Ki) was more than 1000 nM. As for `CC(C)[C@H]1c2ncc(C(=O)NCc3ccnnc3)cc2CN1Cc1ccc(C(F)(F)F)cc1` [Compound 83], the figure is 100 to 1000 nM; as for `CC(C)[C@H]1c2ncc(C(=O)NCc3cccnn3)cc2CN1Cc1ccc(C(F)(F)F)cc1` [Compound 84], more than 1000 nM; as for `CC(C)[C@H]1c2ncc(C(=O)NCC3COCCO3)cc2CN1Cc1ccc(C(F)(F)F)cc1` (stereo partly shown) [Compound 85], more than 1000 nM. As for `CCS(=O)(=O)CCNC(=O)c1cnc2c(c1)CN(Cc1ccc(C(F)(F)F)cc1)[C@H]2C(C)C` [Compound 86], the figure is more than 1000 nM. For the compound `CC(C)[C@H]1c2ncc(C(=O)NC3(CO)Cc4ccccc4C3)cc2CN1Cc1ccc(C(F)(F)F)cc1` [Compound 87], the inhibition constant Ki is more than 1000 nM. The result for `CC(C)[C@H]1c2ncc(C(=O)NCC(c3cccnc3)N3CCOCC3)cc2CN1Cc1ccc(C(F)(F)F)cc1` (stereo partly shown) [Compound 88] reads more than 1000 nM. `CC(C)[C@H]1c2ncc(C(=O)NCCC3CCOCC3)cc2CN1Cc1ccc(C(F)(F)F)cc1` [Compound 90]: the inhibition constant Ki was in the range of 100 to 1000 nM. The result for `CC(C)[C@H]1c2ncc(C(=O)NCC(c3ccncc3)N(C)C)cc2CN1Cc1ccc(C(F)(F)F)cc1` (stereo partly shown) [Compound 92] reads more than 1000 nM; that for `CC(C)[C@H]1c2ncc(C(=O)NCC(c3ccc(C(F)(F)F)cc3)N3CCOCC3)cc2CN1Cc1ccc(C(F)(F)F)cc1` (stereo partly shown) [Compound 93], more than 1000 nM. As for `CC(C)[C@H]1c2ncc(C(=O)NCc3nnc4n3CCC4)cc2CN1Cc1ccc(C(F)(F)F)cc1` [Compound 94], the figure is more than 1000 nM; as for `CC(C)[C@H]1c2ncc(C(=O)NCCCn3ccnc3)cc2CN1Cc1ccc(C(F)(F)F)cc1` [Compound 96], more than 1000 nM; as for `CC(C)[C@H]1c2ncc(C(=O)NCCc3ccccn3)cc2CN1Cc1ccc(C(F)(F)F)cc1` [Compound 97], more than 1000 nM. On to `CC(C)[C@H]1c2ncc(C(=O)NCc3ccccc3OCCN(C)C)cc2CN1Cc1ccc(C(F)(F)F)cc1` [Compound 98], for which the inhibition constant (Ki) was more than 1000 nM. As for `CC(C)[C@H]1c2ncc(C(=O)NCCN3CCN(C)CC3)cc2CN1Cc1ccc(C(F)(F)F)cc1` [Compound 99], the figure is more than 1000 nM; as for `CC(C)[C@H]1c2ncc(C(=O)NCC3CCN(C)CC3)cc2CN1Cc1ccc(C(F)(F)F)cc1` [Compound 100], more than 1000 nM.

For `CC(C)[C@H]1c2ncc(C(=O)NCCc3ccnc(O)c3)cc2CN1Cc1ccc(C(F)(F)F)cc1` [Compound 101], the Ki was more than 1000 nM. The result for `CCS(=O)(=O)N1CC(CCNC(=O)c2cnc3c(c2)CN(Cc2ccc(C(F)(F)F)cc2)[C@H]3C(C)C)C1` [Compound 102] reads 100 to 1000 nM; that for `CCS(=O)(=O)N1CC(CNC(=O)c2cnc3c(c2)CN(Cc2ccc(C(F)(F)F)cc2)[C@H]3C(C)C)C1` [Compound 104], 100 to 1000 nM; that for `COC(=O)N1CC(CNC(=O)c2cnc3c(c2)CN(Cc2ccc(C(F)(F)F)cc2)[C@H]3C(C)C)C1` [Compound 105], more than 1000 nM. As for `CCS(=O)(=O)N1CCC(CNC(=O)c2cnc3c(c2)CN(Cc2ccc(C(F)(F)F)cc2)[C@H]3C(C)C)C1` (stereo partly shown) [Compound 106], the figure is 100 to 1000 nM; as for `COC(=O)N1CCC(CNC(=O)c2cnc3c(c2)CN(Cc2ccc(C(F)(F)F)cc2)[C@H]3C(C)C)C1` (stereo partly shown) [Compound 107], 100 to 1000 nM.

On to `CNC(=O)[C@H]1CC[C@H](CNC(=O)c2cnc3c(c2)CN(Cc2ccc(C(F)(F)F)cc2)[C@H]3C(C)C)CC1` [Compound 108], for which the Ki was more than 1000 nM. With `COC(=O)N1CCC(CNC(=O)c2cnc3c(c2)CN(Cc2ccc(C(F)(F)F)cc2)[C@H]3C(C)C)CC1` [Compound 110], the Ki was more than 1000 nM. Turning to `CC(O)C(=O)N1CCC(CNC(=O)c2cnc3c(c2)CN(Cc2ccc(C(F)(F)F)cc2)[C@H]3C(C)C)CC1` (stereo partly shown) [Compound 112], the inhibition constant (Ki) is more than 1000 nM. In the case of `CC(C)[C@H]1c2ncc(C(=O)NCC3CCN(C(=O)CO)CC3)cc2CN1Cc1ccc(C(F)(F)F)cc1` [Compound 113], the inhibition constant Ki lay within 100 to 1000 nM. `CC(=O)N1CCC(CNC(=O)c2cnc3c(c2)CN(Cc2ccc(C(F)(F)F)cc2)[C@H]3C(C)C)CC1` [Compound 114]: the inhibition constant Ki is more than 1000 nM.

For the compound `CC(C)[C@H]1c2ncc(C(=O)NCc3ccncc3)cc2CN1Cc1ccc(C(F)(F)F)cc1` [Compound 115], the inhibition constant Ki lay within 100 to 1000 nM. Turning to `CC(C)[C@H]1c2ncc(C(=O)NCc3cccc(S(C)(=O)=O)c3)cc2CN1Cc1ccc(C(F)(F)F)cc1` [Compound 116], the Ki was 100 to 1000 nM. Take `CC(C)[C@H]1c2ncc(C(=O)NCC(F)(F)F)cc2CN1Cc1ccc(C(F)(F)F)cc1` [Compound 117]: the Ki was more than 1000 nM. As for `CC(C)[C@H]1c2ncc(C(=O)NCC3(O)CCC4(CC3)OCCO4)cc2CN1Cc1ccc(C(F)(F)F)cc1` [Compound 118], the figure is more than 1000 nM; as for `CC(C)[C@H]1c2ncc(C(=O)N[C@H](C)c3ccc(Br)cc3)cc2CN1Cc1ccc(C(F)(F)F)cc1` [Compound 119], more than 1000 nM; as for `CC(C)[C@H]1c2ncc(C(=O)NC3(c4cnccn4)CC3)cc2CN1Cc1ccc(C(F)(F)F)cc1` [Compound 120], more than 1000 nM. The result for `CC(C)[C@H]1c2ncc(C(=O)NCCC3C(=O)Nc4ccc(Cl)cc43)cc2CN1Cc1ccc(C(F)(F)F)cc1` (stereo partly shown) [Compound 121] reads more than 1000 nM; that for `CC(C)NC(=O)c1cnc2c(c1)CN(Cc1ccc(C(F)(F)F)cc1)[C@H]2C(C)C` [Compound 122], more than 1000 nM; that for `CC(C)[C@H]1c2ncc(C(=O)NC(CO)c3ccc(Br)cc3)cc2CN1Cc1ccc(C(F)(F)F)cc1` (stereo partly shown) [Compound 123], 100 to 1000 nM.
